The record followed here is ChEMBL document CHEMBL5620362 (Eur J Med Chem, 2023).

The target in experiment [1] is T1, Nuclear receptor ROR-gamma (Homo sapiens, UniProt P51449).
T1 sequence (P51449 whole entry): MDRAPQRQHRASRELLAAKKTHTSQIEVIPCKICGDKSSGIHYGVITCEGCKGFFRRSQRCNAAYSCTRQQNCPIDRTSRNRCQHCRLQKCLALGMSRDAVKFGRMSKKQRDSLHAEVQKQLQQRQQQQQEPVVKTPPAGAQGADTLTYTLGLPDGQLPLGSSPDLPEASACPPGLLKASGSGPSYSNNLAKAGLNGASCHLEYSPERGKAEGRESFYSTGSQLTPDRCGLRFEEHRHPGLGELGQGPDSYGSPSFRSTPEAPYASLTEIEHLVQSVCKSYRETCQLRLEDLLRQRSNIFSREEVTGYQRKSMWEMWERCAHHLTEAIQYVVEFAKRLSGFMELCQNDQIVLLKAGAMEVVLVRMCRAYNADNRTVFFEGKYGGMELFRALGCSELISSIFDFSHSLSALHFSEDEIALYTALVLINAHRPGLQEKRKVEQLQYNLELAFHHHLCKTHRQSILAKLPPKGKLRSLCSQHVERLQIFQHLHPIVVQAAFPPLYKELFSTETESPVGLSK
The experiment is described as follows: Binding affinity to CM5 chip-immobilized recombinant ROR-gamma LBD (unknown origin) assessed as dissociation constant by SPR analysis. (In general: In SPR one partner is held on a chip, and binding of the other changes the refractive index at the surface.)

Experiment [2] has as its system HPAF-II. The experiment is described as follows: Antitumor activity against human HPAF-II cells measured after 72 hrs. It is filed as functional, cell-based.
Experiment [3] deals with HPAF-II. The experiment is described as follows: Induction of apoptosis in human HPAF-II cells assessed as viable cells at 1 uM incubated for 48 hrs by Annexin V-FITC/PI staining based flow cytometry (reference value: 89.73 %). In kind it is functional. As to conditions: read-out: Activity. On the technique in general: In flow cytometry, cells or beads pass a laser one at a time.

In experiment [4] the test system is HPAF-II. The experiment is described as follows: Induction of apoptosis in human HPAF-II cells assessed as early apoptotic cells at 1 uM incubated for 48 hrs by Annexin V-FITC/PI staining based flow cytometry (reference value: 0.90 %). It is filed as functional.
Experiment [5] deals with HPAF-II. The experiment is described as follows: Induction of apoptosis in human HPAF-II cells assessed as late apoptotic cells at 1 uM incubated for 48 hrs by Annexin V-FITC/PI staining based flow cytometry (reference value: 1.28 %). It is filed as functional.
Experiment [6] deals with HPAF-II. The experiment is described as follows: Induction of apoptosis in human HPAF-II cells assessed as necrotic cells at 1 uM incubated for 48 hrs by Annexin V-FITC/PI staining based flow cytometry (reference value: 8.09 %). It is filed as functional.
For experiment [7], the system named is NCI-H23. The experiment is described as follows: Induction of apoptosis in human NCI-H23 cells assessed as viable cells at 10 uM incubated for 48 hrs by Annexin V-FITC/PI staining based flow cytometry (reference value: 92.16 %). In kind it is functional. As to conditions: read-out: Activity.
Experiment [8] relates to NCI-H23. The experiment is described as follows: Induction of apoptosis in human NCI-H23 cells assessed as early apoptotic cells at 10 uM incubated for 48 hrs by Annexin V-FITC/PI staining based flow cytometry (reference value: 4.17 %). It is filed as functional.
The test system of experiment [9] is NCI-H23. The experiment is described as follows: Induction of apoptosis in human NCI-H23 cells assessed as late apoptotic cells at 10 uM incubated for 48 hrs by Annexin V-FITC/PI staining based flow cytometry (reference value: 2.89 %). In kind it is functional.
Experiment [10] relates to NCI-H23. The experiment is described as follows: Induction of apoptosis in human NCI-H23 cells assessed as necrotic cells at 10 uM incubated for 48 hrs by Annexin V-FITC/PI staining based flow cytometry (reference value: 0.78 %). It is filed as functional.

In the case of `C=C1C[C@]2(C)[C@H]3CC[C@@H]4[C@H]5[C@H](C(=C)C)CC[C@]5(C(=O)NCCCN(C)C)CC[C@@]4(C)[C@]3(C)CC[C@H]2C(C)(C)C1=O`, in experiment [1], the Kd amounted to 6390 nM. In the experiment on HPAF-II [2], this compound came in with an IC50 of 760 nM.
`C=C(C)[C@@H]1CC[C@]2(C(=O)N[C@H]3CCCN(C)C3)CC[C@]3(C)[C@H](CC[C@@H]4[C@@]5(C)CC[C@H](O)C(C)(C)[C@@H]5CC[C@]43C)[C@@H]12`: the dissociation constant Kd in experiment [1] came out at 960 nM. Also, the IC50 in the experiment with HPAF-II [2] came to 350 nM.
The matching figures for `C=C(C)[C@@H]1CC[C@]2(C(=O)NCCN3CCCC3)CC[C@]3(C)[C@H](CC[C@@H]4[C@@]5(C)CC[C@H](O)C(C)(C)[C@@H]5CC[C@]43C)[C@@H]12`: 870 nM and 230 nM.
In the case of `C=C(C)[C@@H]1CC[C@]2(C(=O)NC[C@H]3CCN(C)C3)CC[C@]3(C)[C@H](CC[C@@H]4[C@@]5(C)CC[C@H](O)C(C)(C)[C@@H]5CC[C@]43C)[C@@H]12`, in the experiment on HPAF-II [2], the IC50 turned out to be 360 nM.
Take `C=C(C)[C@@H]1CC[C@]2(C(=O)NCCN(C)CCN(C)C)CC[C@]3(C)[C@H](CC[C@@H]4[C@@]5(C)CC[C@H](O)C(C)(C)[C@@H]5CC[C@]43C)[C@@H]12`: the Kd in experiment [1] was 1880 nM. The IC50 with HPAF-II [2] was 380 nM.
`C=C(C)[C@@H]1CC[C@]2(C(=O)N[C@@H]3CN4CCC3CC4)CC[C@]3(C)[C@H](CC[C@@H]4[C@@]5(C)CC[C@H](O)C(C)(C)[C@@H]5CC[C@]43C)[C@@H]12`: in experiment [1], the Kd was found to be 120 nM. In addition, the IC50 in the experiment on HPAF-II [2] amounted to 130 nM.
In the experiment with HPAF-II [2], `C=C(C)[C@@H]1CC[C@]2(C(=O)NC[C@@H]3CCN(C)C3)CC[C@]3(C)[C@H](CC[C@@H]4[C@@]5(C)CC[C@H](O)C(C)(C)[C@@H]5CC[C@]43C)[C@@H]12` yielded an IC50 of 320 nM.
For the compound `C=C(C)[C@@H]1CC[C@]2(C(=O)NCCNc3ccncc3)CC[C@]3(C)[C@H](CC[C@@H]4[C@@]5(C)CC[C@H](O)C(C)(C)[C@@H]5CC[C@]43C)[C@@H]12`, in [1], the Kd was 590 nM. Moreover, 310 nM corresponded to half-maximal inhibition in the experiment with HPAF-II [2] (IC50).
Consider `C=C(C)[C@@H]1CC[C@]2(C(=O)N[C@@H]3CCN(C)C3)CC[C@]3(C)[C@H](CC[C@@H]4[C@@]5(C)CC[C@H](O)C(C)(C)[C@@H]5CC[C@]43C)[C@@H]12`, for which the Kd in experiment [1] is 670 nM. This compound also yielded an IC50 in the experiment with HPAF-II [2] of 380 nM.
The matching figures for `C=C(C)[C@@H]1CC[C@]2(C(=O)NCC(C)(C)CN(C)C)CC[C@]3(C)[C@H](CC[C@@H]4[C@@]5(C)CC[C@H](O)C(C)(C)[C@@H]5CC[C@]43C)[C@@H]12`: 2900 nM and 440 nM.
As for `O=S(=O)(c1ccccc1)N(CC(F)(F)F)c1ccc(C(O)(C(F)(F)F)C(F)(F)F)cc1` [T091317], the viability at 1 µM in the experiment on HPAF-II [3] stood at 79.8%. Moreover, the Activity was found to be 8.56% in the experiment on HPAF-II [4]; 7.38% with HPAF-II [5]; 6.3% in the experiment with HPAF-II [6]; 2.68% with NCI-H23 [8]; 3.82% in the experiment with NCI-H23 [9]; 3.3% in the experiment on NCI-H23 [10]. In addition, the viability at 10 µM in the experiment with NCI-H23 [7] came out at 90.2%.
Regarding `C=C(C)[C@@H]1CC[C@]2(C(=O)NCCN3CCC(O)C3)CC[C@]3(C)[C@H](CC[C@@H]4[C@@]5(C)CC[C@H](O)C(C)(C)[C@@H]5CC[C@]43C)[C@@H]12` (stereo partly drawn), the Kd in [1] was found to be 290 nM. Further, the IC50 in the experiment on HPAF-II [2] came out at 310 nM.
In the case of `C=C(C)[C@@H]1CC[C@]2(C(=O)NCc3cncs3)CC[C@]3(C)[C@H](CC[C@@H]4[C@@]5(C)CC[C@H](O)C(C)(C)[C@@H]5CC[C@]43C)[C@@H]12`, in [1], the Kd turned out to be 780 nM. This compound registered a 50% inhibitory concentration (IC50) with HPAF-II [2] of 9300 nM.
The matching figures for `C=C(C)[C@@H]1CC[C@]2(C(=O)NC3CCCN(C)CC3)CC[C@]3(C)[C@H](CC[C@@H]4[C@@]5(C)CC[C@H](O)C(C)(C)[C@@H]5CC[C@]43C)[C@@H]12` (stereo partly drawn): 250 nM and 110 nM.
With `C=C(C)[C@@H]1CC[C@]2(C(=O)N[C@@H]3CCCN(C)C3)CC[C@]3(C)[C@H](CC[C@@H]4[C@@]5(C)CC[C@H](O)C(C)(C)[C@@H]5CC[C@]43C)[C@@H]12`, in experiment [1], the Kd worked out at 340 nM. Also, in the experiment with HPAF-II [2], the IC50 was found to be 300 nM.
Take `C=C(C)[C@@H]1CC[C@]2(C(=O)NCc3cc[nH]n3)CC[C@]3(C)[C@H](CC[C@@H]4[C@@]5(C)CC[C@H](O)C(C)(C)[C@@H]5CC[C@]43C)[C@@H]12`: the Kd in [1] worked out at 780 nM. Besides, it took 7030 nM to reach half-maximal inhibition in the experiment with HPAF-II [2] (IC50).
Consider `C=C(C)[C@@H]1CC[C@]2(C(=O)NCCOCCN(C)C)CC[C@]3(C)[C@H](CC[C@@H]4[C@@]5(C)CC[C@H](O)C(C)(C)[C@@H]5CC[C@]43C)[C@@H]12`, for which the Kd in experiment [1] was 520 nM. In the experiment on HPAF-II [2], this compound displayed an IC50 of 320 nM.
In the case of `C=C(C)[C@@H]1CC[C@]2(C(=O)NC[C@H]3CCCN3C)CC[C@]3(C)[C@H](CC[C@@H]4[C@@]5(C)CC[C@H](O)C(C)(C)[C@@H]5CC[C@]43C)[C@@H]12`, the Kd in experiment [1] was 420 nM. In the experiment with HPAF-II [2], this compound came in with an IC50 of 350 nM.
For the compound `C=C(C)[C@@H]1CC[C@]2(C(=O)NCCN(CC)CCO)CC[C@]3(C)[C@H](CC[C@@H]4[C@@]5(C)CC[C@H](O)C(C)(C)[C@@H]5CC[C@]43C)[C@@H]12`, the Kd in experiment [1] came out at 1110 nM. Moreover, inhibition in the experiment with HPAF-II [2] was half-maximal at 220 nM (IC50).
Consider `C=C(C)[C@@H]1CC[C@]2(C(=O)Nc3nccs3)CC[C@]3(C)[C@H](CC[C@@H]4[C@@]5(C)CC[C@H](O)C(C)(C)[C@@H]5CC[C@]43C)[C@@H]12`, for which the Kd in experiment [1] is 5460 nM. The same compound had an IC50 with HPAF-II [2] of 1960 nM.
The matching figures for `C=C(C)[C@@H]1CC[C@]2(C(=O)NCCCN(C)C)CC[C@]3(C)[C@H](CC[C@@H]4[C@@]5(C)C[C@H](O)C(C)(C)[C@@H]5CC[C@]43C)[C@@H]12`: 3060 nM and 2780 nM.
As to `CN(C)CCCNC(=O)[C@]12CC[C@@H](C3(C)CC3)[C@@H]1[C@H]1CC[C@@H]3[C@@]4(C)CC[C@H](O)C(C)(C)[C@@H]4CC[C@@]3(C)[C@]1(C)CC2`, the Kd in experiment [1] turned out to be 240 nM. The midpoint of inhibition in the experiment with HPAF-II [2], the IC50, lay at 120 nM.
As to `C=C(C)[C@@H]1CC[C@]2(C(=O)NC3CCNCC3)CC[C@]3(C)[C@H](CC[C@@H]4[C@@]5(C)CC[C@H](O)C(C)(C)[C@@H]5CC[C@]43C)[C@@H]12`, the Kd in experiment [1] came out at 1960 nM. 1210 nM corresponded to half-maximal inhibition in the experiment with HPAF-II [2] (IC50).
Consider `C=C(C)[C@@H]1CC[C@]2(C(=O)NCCCN(C)C)CC[C@]3(C)[C@H](CC[C@@H]4[C@@]5(C)CC[C@H](N)C(C)(C)[C@@H]5CC[C@]43C)[C@@H]12`, for which the Kd in [1] is 4550 nM. The compound further yielded an IC50 in the experiment with HPAF-II [2] of 370 nM.
With `C=C(C)[C@@H]1CC[C@]2(C(=O)N[C@H]3CCN(C)C3)CC[C@]3(C)[C@H](CC[C@@H]4[C@@]5(C)CC[C@H](O)C(C)(C)[C@@H]5CC[C@]43C)[C@@H]12`, the Kd in experiment [1] worked out at 1870 nM. For the same compound, in the experiment with HPAF-II [2], the midpoint of inhibition, the IC50, lay at 210 nM.
`C=C(C)[C@@H]1CC[C@]2(C(=O)NCCN(CC)CC)CC[C@]3(C)[C@H](CC[C@@H]4[C@@]5(C)CC[C@H](O)C(C)(C)[C@@H]5CC[C@]43C)[C@@H]12`: the Kd in [1] worked out at 720 nM. This compound registered an IC50 in the experiment with HPAF-II [2] of 120 nM.
For `C=C(C)[C@@H]1CC[C@]2(C(=O)NC[C@@H]3CCCN3C)CC[C@]3(C)[C@H](CC[C@@H]4[C@@]5(C)CC[C@H](O)C(C)(C)[C@@H]5CC[C@]43C)[C@@H]12`, the Kd in experiment [1] was determined as 660 nM. For the same compound, half-maximal inhibition with HPAF-II [2] (IC50) was put at 320 nM.

The term Kd denotes the concentration at which binding is half-saturated. Broadly, the IC50 is the point on the concentration scale where inhibition reaches its midpoint. Read a low IC50 as greater potency in that assay.
